# Measurements published in US8835506B2, “Methods and related compositions for the treatment of cancer” (STC.UNM, priority 2008, dated 2014).
# “Also recorded” adds a separate entry of the source.
# What was measured:
# [1] = tested on: PC3 androgen-independent human prostate cancer cells; assay: Cell death by trypan blue uptake; format: cell-based
# Description: (§1) Cell Viability Assays: Two assays were used to determine cell viability; propidium iodide exclusion with flow cytometry and trypan blue exclusion with hemacytometry. Cells were treated with astemizole at the indicated concentrations for 24 to 96 hours prior to viability analysis. For propidium iodide cell viability determinations, cells were removed from the dishes with 0.05% trypsin. All cell culture medium was collected for the analysis in order to include any cells that may have released from the plate during the incubation period. Propidium iodide was added at a final concentration of 2 μg/ml and cells were analyzed on a Becton Dickinson FACScan flow cytometer. For trypan blue dye exclusion studies, all cell culture medium and cells removed by trypsinization were collected as above. An aliquot of these cells was re-suspended in 0.4% trypan blue. Both viable and non-viable cell counts were obtained by manual counting using a hemacytometer and light microscopy.
# [2] = in vivo; cited from earlier work
# [3] = cited from earlier work
# [4] = tested on: prostate cancer cells; assay: Cell death of human cancer cells cultured with AST; format: cell-based
# Description: as §1
# [5] = tested on: LNCaP human prostate cancer cells; assay: Cytotoxicity of AST in culture; format: cell-based
# Description: as §1
# [6] = tested on: PC3 human prostate cancer cells; assay: Light microscopy of intracellular granularity; format: cell-based; settings: FIG. 3
# From the text: (§2) Microscopic and Flow Cytometric Scatter Analysis: Light microscopy images of prostate cancer cells in culture were collected using an Olympus IX70 inverted microscope and a 20× objective. Flow cytometric analysis of forward scatter (FSC) and side scatter (SSC) were preformed using the UNM Shared Flow Cytometry Resource on a Cytomation Mo Flo, an Epics Elite, a Becton Dickinson FACScan, or a Becton Dickinson FACS Calibur.
# [7] = cited from earlier work; remark: listed apart in the source
# [8] = rare cases, patients exceeding recommended doses; cited from earlier work
# [9] = tested on: 22Rv1 prostate cancer cells; assay: Viability by trypan blue exclusion, astemizole alone or with docetaxel or radiation; format: cell-based, human; parameters: key to action determined with combination therapy: &: Additive action determined with combination therapy.; #: Synergistic action determined with combination therapy; settings: for level of cell killing in combination: 24 hours
# Description: as §1
# Compounds according to the present invention may also function as radiosensitizers in addition to their anticancer activity. A study was performed showing prostate cancer cell killing actions of astemizole in combination with other therapeutic interventions. Astemizole alone produced a decrease in 22Rv1 prostate cancer cell viability with 8 μM 24 hours after treatment. […] This is true of the other agents which are described herein.
# [10] = tested on: CWRv22 human prostate cancer cells; assay: Cell death by trypan blue uptake and hemacytometry; format: cell-based
# Description: as §1
# [11] = tested on: skin cancer cells (SCC); assay: Cell death by trypan blue uptake and hemacytometry; format: cell-based; settings: AST up to 15 μM; listed as AST
# Description: as §1
# [12] = tested on: LAPC4 human prostate cancer cells; assay: Cell death by trypan blue uptake and hemacytometry; format: cell-based
# Description: as §1
# [13] = tested on: PC3 cells; assay: Hypodiploid population by propidium iodide incorporation and flow cytometry (apoptosis hallmarks); format: cell-based, human
# From the text: Multiple mechanisms could account for the cell death observed in cancer cells from treatment with AST. […] Thus, administering the agents identified above that induce intracellular granularity in cancer cells may produce cell death through an autophagic mechanism.
# [14] = tested on: PC3 cells; assay: Cell proliferation assay (CyQUANT NF); format: cell-based, human; settings: over a 4 day period
# Description: (§3) Cell Proliferation Assay: To determine the number of proliferating cells after astemizole treatment, cells were seeded in 96-well tissue culture plates at 5,000 cells per well in 100 uL of DMEM/FCS. Two days after plating, cells were treated with astemizole at the indicated concentrations. Four days after treatment, cell proliferation was determined using the CyQUANT NF Cell Proliferation Assay Kit (Invitrogen, Carlsbad, Calif.) according to the kit instructions.
# [15] = tested on: LNCaP cells; assay: Cell proliferation assay (CyQUANT NF); format: cell-based, human; settings: FIG. 7, 4 days
# Description: as §3
# [16] = tested on: DU145 cells; assay: Cell proliferation assay (CyQUANT NF); format: cell-based, human; settings: FIG. 7, 4 days
# Description: as §3
# [17] = tested on: LAPC4 cells; assay: Cell proliferation assay (CyQUANT NF); format: cell-based, human; settings: FIG. 7, 4 days
# Description: as §3
# [18] = tested on: LNCaP cells; assay: HyperCyt high-throughput flow cytometry, side scatter as endpoint for intracellular granularity; cell death seen as adherent cells becoming non-adherent; format: cell-based, human
# Description: HyperCyt and High-throughput Data Analysis: The HyperCyt® cytometry analysis system interfaces a flow cytometer and an autosampler. While the sampling probe moves from well to well, a peristaltic pump sequentially aspirates a small volume from each well. A bubble of air, created by the continuously running pump, separates samples from individual wells. Sample and bubble volumes are determined by the time the sampling probe is in a well (sip time) or in taking air while moving from well to well (up time). HyperCyt® sampling of a single 384-well plate is completed in less than 15 minutes. This system has been validated using cell-based high-throughput endpoint assays for ligand binding, surface antigen expression, and immunophenotyping.
# The air-bubble separated samples, collected by HyperCyt®, are delivered continuously to the cytometer. The data accumulates as a single, time-resolved file with gaps corresponding to air-bubbles. Both forward and side light scattering properties of treated LNCaP cells were measured using a 488 nm laser. Time-resolved data were analyzed by proprietary software (IDLQuery) set to search for 384 separate data clusters. Data from negative (0.1% DMSO) replicate wells were pooled and used to set gates that define granularity in vehicle-treated LNCaP cells. […] A gate is set reflecting this distinction that is then applied to each data cluster. These values are automatically exported to a Microsoft Excel spreadsheet template that calculates percent side scatter shift in individual treated samples.
# as §2
# [19] = tested on: LC3 II band in CWRv22 cells; assay: LC3 II band induction (autophagy marker); format: cell-based, human; settings: 10 μM AST, 6 hours
# [20] = tested on: advanced prostate cancer; settings: advanced prostate cancer patients, on average; cited from earlier work
compound,measurement,setting,value
1-[(4-fluorophenyl)methyl]-N-[1-[2-(4-ethoxyphenyl)ethyl]-4-piperidyl]benzoimidazol-2-amine [Astemizole],time to cell death after treatment,[1],≤ 24 h
same,cell death,"[1]; 10 μM AST, 48 hours",greater than 25%
same,cells dead,"[1]; 15 μM AST, 48 hours",~100%
same,crossing of the blood-brain barrier,[2],does not cross the blood-brain barrier
same,absorption,[3]; from the gastrointestinal tract,rapidly absorbed
same,excretion,[3]; man,excreted as metabolites chiefly in the feces
same,half-life of the active ingredient,[3]; man,approximately 1 day
same,metabolism,[3]; man,extensively metabolized
same,concentration at which cells undergo rapid cell death,[4],above 5 μM
same,cell killing by AST treatment,[5],dose-response to cell killing
same,intracellular granularity observed by light microscopy,[6],increase in intracellular granularity
same,protein binding,[7],around 96%
same,serious life-threatening cardiovascular adverse events,[8],"QT-prolongation, torsades de pointes, and other ventricular arrhythmias"
same,action determined with combination therapy,[9]; 2 μM astemizole + 10 nM docetaxel,&
same,"% Viability, Mean (SD)","[9]; 2 μM astemizole + 10 nM docetaxel, 24 h, n = 3",71.3%
same,action determined with combination therapy,[9]; 2 μM astemizole + 10 Gy radiation,&
same,"% Viability, Mean (SD)","[9]; 2 μM astemizole + 10 Gy radiation, 24 h, n = 3",63.5%
same,"% Viability, Mean (SD)","[9]; 2 μM astemizole alone, 24 h, n = 3",88.2 (4.9) %
same,action determined with combination therapy,[9]; 4 μM astemizole + 10 nM docetaxel,&
same,"% Viability, Mean (SD)","[9]; 4 μM astemizole + 10 nM docetaxel, 24 h, n = 3",74.4%
same,action determined with combination therapy,[9]; 4 μM astemizole + 10 Gy radiation,#
same,"% Viability, Mean (SD)","[9]; 4 μM astemizole + 10 Gy radiation, 24 h, n = 3",57.4%
same,"% Viability, Mean (SD)","[9]; 4 μM astemizole alone, 24 h, n = 3",90.6 (1.2) %
same,action determined with combination therapy,[9]; 8 μM astemizole + 10 nM docetaxel,&
same,"% Viability, Mean (SD)","[9]; 8 μM astemizole + 10 nM docetaxel, 24 h, n = 3",49.7%
same,action determined with combination therapy,[9]; 8 μM astemizole + 10 Gy radiation,#
same,"% Viability, Mean (SD)","[9]; 8 μM astemizole + 10 Gy radiation, 24 h, n = 3",22.2%
same,"% Viability, Mean (SD)","[9]; 8 μM astemizole alone, 24 h, n = 3",64.3 (8.1) %
same,"cell viability, astemizole alone","[9]; 8 μM, 24 hours after treatment",decrease
same,level of cell killing in combination,"[9]; 2, 4 and 8 μM astemizole with 10 nM docetaxel",additive levels of cell killing
same,level of cell killing in combination,"[9]; 2, 4 and 8 μM astemizole with 10 gray radiation",synergistic levels of cell killing
same,cell killing by AST treatment,[10],dose-response to cell killing
same,cells dead,"[10]; 6 μM AST, within 24 hours",80%
same,cell death by AST treatment,[11],resistant to cell death; also recorded: not killed
same,cell killing by AST treatment,[12],dose-response to cell killing
same,cells dead,"[12]; 6 μM AST, within 24 hours",80%
same,hallmarks of apoptotic cell death (hypodiploid population),[13],does not produce hallmarks of apoptotic cell death
same,concentration inhibiting cell growth,[14],≥ 1 µM
same,prostate cancer cell growth,[15],significant reduction
same,prostate cancer cell growth,[16],significant reduction
same,prostate cancer cell growth,[17],significant reduction
same,cancer cell intracellular granularity by SSC flow cytometry,"[18]; FIG. 2, prostate cancer cells",significantly increase
same,dose at which cell death is seen,[18]; FIG. 4 dose-response,10 µM
same,dose range of AST-induced increases in intracellular granularity,[18]; FIG. 4 dose-response,up to 3 μM
same,LC3 II band associated with autophagic pathways,[19],induction of an LC3 II band
same,LC3 II band associated with autophagic pathways,[19]; listed as AST,increase in the LC3 II band
CC(=O)O[C@@]12CO[C@@H]1C[C@H](O)[C@@]1(C)C(=O)[C@H](O)C3=C(C)[C@@H](OC(=O)[C@H](O)[C@@H](NC(=O)OC(C)(C)C)c4ccccc4)C[C@@](O)([C@@H](OC(=O)c4ccccc4)[C@H]21)C3(C)C [Taxotere],prolongation of life,[20],2.5 months
CC(=O)O[C@@]12CO[C@@H]1C[C@H](O)[C@@]1(C)C(=O)[C@H](O)C3=C(C)[C@@H](OC(=O)[C@H](O)[C@@H](NC(=O)OC(C)(C)C)c4ccccc4)C[C@@](O)([C@@H](OC(=O)c4ccccc4)[C@H]21)C3(C)C [docetaxel],viability at 0.01 µM,"[9]; Homo sapiens, 22Rv1, 10 nM docetaxel alone (0 μM astemizole), 24 h, n = 3, read-out: % Viability, Mean (SD)",80.7%
